Reference: the supplement of paper PMC10331698
± gives the standard deviation of the averaged measurements.

Key:
Assay in all cases: level (log10 ratio to DMSO vehicle control); higher = higher biomarker level / cell amount than vehicle control
Details in all cases: in DMSO
[1] = compound: C=C(C)C(=O)OCCC(F)(F)C(F)(F)C(F)(F)C(F)(F)C(F)(C(F)(F)F)C(F)(F)F [(Perfluoro-5-methylhexyl)ethyl 2-methylprop-2-enoate]
Experimental: (§1)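 BioMAP Diversity Plus panel of 12 human primary cell co-culture systems (3C, 4H, LPS, SAg, BT, BF4T, BE3C, CASM3C, HDF3CGF, KF3CT, MyoF, Mphg). Compounds were added 1 h before stimulation and left for 24 h (MyoF 48 h; BT 72 h for soluble read-outs or 6 d for IgG). Biomarkers were read by ELISA, cytotoxicity by SRB, PBMC viability and proliferation by Alamar Blue. Each well value was divided by the mean of 8 DMSO control wells on the same plate and log10 transformed; duplicate blinded samples were tested at 4 concentrations.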

Perfluoropentanoic acid = compound: O=C(O)C(F)(F)C(F)(F)C(F)(F)C(F)(F)F [Perfluoropentanoic acid]
Experimental: as §1

[2] = compound: O=C(O)C(F)(F)C(F)(F)C(F)(F)C(F)(F)C(F)(F)C(F)(F)C(F)(F)C(F)F [9-H-Perfluorononanoic acid]
Experimental: as §1

Pentafluoropropionamide = compound: NC(=O)C(F)(F)C(F)(F)F [Pentafluoropropionamide]
Experimental: as §1

Heptafluorobutyramide = compound: NC(=O)C(F)(F)C(F)(F)C(F)(F)F [Heptafluorobutyramide]
Experimental: as §1

[3] = compound: O=C(O)C(F)(F)C(F)(F)C(F)F [4H-Perfluorobutanoic acid]
Experimental: as §1

Perfluoroheptanoic acid = compound: O=C(O)C(F)(F)C(F)(F)C(F)(F)C(F)(F)C(F)(F)C(F)(F)F [Perfluoroheptanoic acid]
Experimental: as §1

Test System | level (log10) ([1]; 6700 nM) | level (log10) ([1]; 20000 nM) | level (log10) (Perfluoropentanoic acid; 6700 nM) | level (log10) (Perfluoropentanoic acid; 20000 nM) | level (log10) (Perfluoropentanoic acid; 60000 nM) | level (log10) ([2]; 6700 nM) | level (log10) ([2]; 20000 nM) | level (log10) ([2]; 60000 nM) | level (log10) (Pentafluoropropionamide; 6700 nM) | level (log10) (Pentafluoropropionamide; 20000 nM) | level (log10) (Pentafluoropropionamide; 60000 nM) | level (log10) (Heptafluorobutyramide; 6700 nM) | level (log10) (Heptafluorobutyramide; 20000 nM) | level (log10) (Heptafluorobutyramide; 60000 nM) | level (log10) ([3]; 6700 nM) | level (log10) ([3]; 20000 nM) | level (log10) ([3]; 60000 nM) | level (log10) (Perfluoroheptanoic acid; 6700 nM) | level (log10) (Perfluoroheptanoic acid; 20000 nM) | level (log10) (Perfluoroheptanoic acid; 60000 nM)
lMphg:M-CSF | -0.005 ± 0.042 | 0.015 ± 0.042 | -0.028 ± 0.045 | 0.006 ± 0.035 | 0.0095 ± 0.049 | -0.008 ± 0.028 | -0.0035 ± 0.018 | -0.0045 ± 0.013 | -0.0185 ± 0.0035 | -0.0285 ± 0.0021 | 0.002 ± 0.028 | -0.014 ± 0.018 | -0.034 ± 0.025 | -0.0135 ± 0.00071 | -0.0115 ± 0.005 | -0.015 ± 0.0028 | -0.0175 ± 0.0064 | -0.006 ± 0.0014 | -0.001 ± 0.016 | 0.005 ± 0.0071
lMphg:SRB | -0.0035 ± 0.0035 | -0.0105 ± 0.0021 | -0.0125 ± 0.0035 | -0.0065 ± 0.0092 | 0.01 ± 0.018 | 0.0005 ± 0.00071 | 0.002 ± 0.0057 | -0.0115 ± 0.005 | 0.004 ± 0.0071 | -0.0025 ± 0.0092 | -0.001 ± 0.0014 | -0.015 ± 0.0099 | -0.0025 ± 0.005 | 0 ± 0.02 | -0.0035 ± 0.019 | -0.005 ± 0.0057 | 0.0025 ± 0.0021 | -0.013 ± 0.02 | -0.01 ± 0.0028 | -0.002 ± 0.0014
lMphg:SRB-Mphg | 0.0015 ± 0.011 | -0.0095 ± 0.021 | -0.0125 ± 0.022 | 0.001 ± 0.0071 | 0.006 ± 0.017 | 0.0225 ± 0.018 | 0.043 ± 0.013 | 0.0175 ± 0.032 | -0.0135 ± 0.074 | 0.0555 ± 0.043 | 0.0595 ± 0.0078 | -0.038 ± 0.0071 | -0.0175 ± 0.0021 | 0.0155 ± 0.036 | -0.009 ± 0.075 | -0.015 ± 0.054 | 0 ± 0.027 | -0.003 ± 0.014 | 0.005 ± 0.0071 | 0.004 ± 0.0042
lMphg:sIL-10 | 0.0215 ± 0.029 | -0.0195 ± 0.12 | -0.017 ± 0.013 | -0.075 ± 0.025 | -0.0845 ± 0.05 | -0.0465 ± 0.00071 | -0.0225 ± 0.04 | -0.642 ± 0.04 | -0.0095 ± 0.044 | -0.01 ± 0.028 | -0.0635 ± 0.12 | 0.002 ± 0.05 | -0.0445 ± 0.071 | -0.011 ± 0.058 | -0.0495 ± 0.096 | -0.0605 ± 0.054 | -0.019 ± 0.0014 | -0.017 ± 0.018 | 0.007 ± 0.027 | -0.0945 ± 0.032
